# Species: Rattus norvegicus
# Assay: Open TG-GATES - Regimen: Daily Repeat
# Assay type: toxicity, organism-based, Sprague-Dawley
# Design: regimen Daily Repeat, gender Male, age 6 weeks
# Settings: in vivo, po, 1000 mg/kg, route gavage, dose level High; for APTT / Bas / Eos / Fbg / Hb / Ht / Lym / MCH / MCHC / MCV / Mono / Neu / PT / Plat / RBC / Ret / WBC: tissue Blood; for KIDNEY_L / KIDNEY_R / KIDNEY_TOTAL: tissue Kidney; for LIVER: tissue Liver; for A/G / ALP / ALT / AST / BUN / CRE / Ca / Cl / DBIL / GLC / IP / K / LDH / Na / PL / RALB / TBIL / TC / TG / TP / gamma-GTP: tissue Plasma
structure (smiles),measurement,setting,value
CCCCNC(=O)NS(=O)(=O)c1ccc(C)cc1 [TOLBUTAMIDE],TERMINAL_BW,"72 h, time 3 day",225.8 g
same,APTT,"72 h, time 3 day",17.7 s
same,Bas,"72 h, time 3 day",0%
same,Eos,"72 h, time 3 day",1%
same,Fbg,"72 h, time 3 day",301.6 mg/dL
same,Hb,"72 h, time 3 day",13.7 g/dL
same,Ht,"72 h, time 3 day",41.6%
same,Lym,"72 h, time 3 day",81%
same,MCH,"72 h, time 3 day",21.2 pg
same,MCHC,"72 h, time 3 day",33%
same,MCV,"72 h, time 3 day",64.2 fL
same,Mono,"72 h, time 3 day",2.2%
same,Neu,"72 h, time 3 day",15.2%
same,PT,"72 h, time 3 day",12.8 s
same,Plat,"72 h, time 3 day",129.6 x10_4/uL
same,RBC,"72 h, time 3 day",647.4 x10_4/ul
same,Ret,"72 h, time 3 day",4.2%
same,WBC,"72 h, time 3 day",89.2 x10_2/uL
same,KIDNEY_L,"72 h, time 3 day",1 g
same,KIDNEY_R,"72 h, time 3 day",1 g
same,KIDNEY_TOTAL,"72 h, time 3 day",2.1 g
same,LIVER,"72 h, time 3 day",11.5 g
same,A/G,"72 h, time 3 day",0.9
same,ALP,"72 h, time 3 day",1487 IU/L
same,ALT,"72 h, time 3 day",40.8 IU/L
same,AST,"72 h, time 3 day",69.6 IU/L
same,BUN,"72 h, time 3 day",12.8 mg/dL
same,CRE,"72 h, time 3 day",0.2 mg/dL
same,Ca,"72 h, time 3 day",11 mg/dL
same,Cl,"72 h, time 3 day",105.2 meq/L
same,DBIL,"72 h, time 3 day",0.004 mg/dL
same,GLC,"72 h, time 3 day",172 mg/dL
same,IP,"72 h, time 3 day",7.9 mg/dL
same,K,"72 h, time 3 day",3.9 meq/L
same,LDH,"72 h, time 3 day",75.6 IU/L
same,Na,"72 h, time 3 day",142.4 meq/L
same,PL,"72 h, time 3 day",144 mg/dL
same,RALB,"72 h, time 3 day",2.6 g/dL
same,TBIL,"72 h, time 3 day",0.06 mg/dL
same,TC,"72 h, time 3 day",76.8 mg/dL
same,TG,"72 h, time 3 day",68 mg/dL
same,TP,"72 h, time 3 day",5.5 g/dL
same,gamma-GTP,"72 h, time 3 day",1 IU/L
same,TERMINAL_BW,"[…], time 7 day",255.2 g
same,TERMINAL_BW,"[…], time 14 day",306.7 g
same,TERMINAL_BW,"[…], time 28 day",411.9 g
same,APTT,"[…], time 7 day",18.1 s
same,Bas,"[…], time 7 day",0.4%
same,Eos,"[…], time 7 day",0.6%
same,Fbg,"[…], time 7 day",267.4 mg/dL
same,Hb,"[…], time 7 day",13.7 g/dL
same,Ht,"[…], time 7 day",41.4%
same,Lym,"[…], time 7 day",80%
same,MCH,"[…], time 7 day",20.5 pg
same,MCHC,"[…], time 7 day",33.1%
same,MCV,"[…], time 7 day",61.9 fL
same,Mono,"[…], time 7 day",2.4%
same,Neu,"[…], time 7 day",16.2%
same,PT,"[…], time 7 day",12.9 s
same,Plat,"[…], time 7 day",112 x10_4/uL
same,RBC,"[…], time 7 day",669.6 x10_4/ul
same,Ret,"[…], time 7 day",5.3%
same,WBC,"[…], time 7 day",138.8 x10_2/uL
same,APTT,"[…], time 14 day",19.2 s
same,Bas,"[…], time 14 day",0.4%
same,Eos,"[…], time 14 day",0.8%
same,Fbg,"[…], time 14 day",320 mg/dL
same,Hb,"[…], time 14 day",14.3 g/dL
same,Ht,"[…], time 14 day",43.7%
same,Lym,"[…], time 14 day",82.8%
same,MCH,"[…], time 14 day",19.3 pg
same,MCHC,"[…], time 14 day",32.7%
same,MCV,"[…], time 14 day",59.1 fL
same,Mono,"[…], time 14 day",1.8%
same,Neu,"[…], time 14 day",13.8%
same,PT,"[…], time 14 day",12.5 s
same,Plat,"[…], time 14 day",127.9 x10_4/uL
same,RBC,"[…], time 14 day",740 x10_4/ul
same,Ret,"[…], time 14 day",4.3%
same,WBC,"[…], time 14 day",116.4 x10_2/uL
same,APTT,"[…], time 28 day",25 s
same,Bas,"[…], time 28 day",0.2%
same,Eos,"[…], time 28 day",1%
same,Fbg,"[…], time 28 day",269.5 mg/dL
same,Hb,"[…], time 28 day",15 g/dL
same,Ht,"[…], time 28 day",45%
same,Lym,"[…], time 28 day",84.5%
same,MCH,"[…], time 28 day",18.6 pg
same,MCHC,"[…], time 28 day",33.5%
same,MCV,"[…], time 28 day",55.6 fL
same,Mono,"[…], time 28 day",2%
same,Neu,"[…], time 28 day",11.2%
same,PT,"[…], time 28 day",13.5 s
same,Plat,"[…], time 28 day",102.5 x10_4/uL
same,RBC,"[…], time 28 day",808.8 x10_4/ul
same,Ret,"[…], time 28 day",2.1%
same,WBC,"[…], time 28 day",118.3 x10_2/uL
same,KIDNEY_L,"[…], time 7 day",1.1 g
same,KIDNEY_R,"[…], time 7 day",1.1 g
same,KIDNEY_TOTAL,"[…], time 7 day",2.2 g
same,KIDNEY_L,"[…], time 14 day",1.2 g
same,KIDNEY_R,"[…], time 14 day",1.2 g
same,KIDNEY_TOTAL,"[…], time 14 day",2.4 g
same,KIDNEY_L,"[…], time 28 day",1.4 g
same,KIDNEY_R,"[…], time 28 day",1.3 g
same,KIDNEY_TOTAL,"[…], time 28 day",2.7 g
same,LIVER,"[…], time 7 day",12.3 g
same,LIVER,"[…], time 14 day",15 g
same,LIVER,"[…], time 28 day",18.7 g
same,A/G,"[…], time 7 day",0.9
same,ALP,"[…], time 7 day",1609.6 IU/L
same,ALT,"[…], time 7 day",48.6 IU/L
same,AST,"[…], time 7 day",71.4 IU/L
same,BUN,"[…], time 7 day",14.8 mg/dL
same,CRE,"[…], time 7 day",0.2 mg/dL
same,Ca,"[…], time 7 day",10.7 mg/dL
same,Cl,"[…], time 7 day",104 meq/L
same,DBIL,"[…], time 7 day",0.008 mg/dL
same,GLC,"[…], time 7 day",189.6 mg/dL
same,IP,"[…], time 7 day",7.7 mg/dL
same,K,"[…], time 7 day",4 meq/L
same,LDH,"[…], time 7 day",55.8 IU/L
same,Na,"[…], time 7 day",141.8 meq/L
same,PL,"[…], time 7 day",151.8 mg/dL
same,RALB,"[…], time 7 day",2.5 g/dL
same,TBIL,"[…], time 7 day",0.052 mg/dL
same,TC,"[…], time 7 day",74.2 mg/dL
same,TG,"[…], time 7 day",94.2 mg/dL
same,TP,"[…], time 7 day",5.4 g/dL
same,gamma-GTP,"[…], time 7 day",0.8 IU/L
same,A/G,"[…], time 14 day",0.9
same,ALP,"[…], time 14 day",1494.8 IU/L
same,ALT,"[…], time 14 day",42.4 IU/L
same,AST,"[…], time 14 day",63.4 IU/L
same,BUN,"[…], time 14 day",15 mg/dL
same,CRE,"[…], time 14 day",0.2 mg/dL
same,Ca,"[…], time 14 day",10.9 mg/dL
same,Cl,"[…], time 14 day",104.6 meq/L
same,DBIL,"[…], time 14 day",0.01 mg/dL
same,GLC,"[…], time 14 day",192.6 mg/dL
same,IP,"[…], time 14 day",6.8 mg/dL
same,K,"[…], time 14 day",3.8 meq/L
same,LDH,"[…], time 14 day",49.4 IU/L
same,Na,"[…], time 14 day",142.4 meq/L
same,PL,"[…], time 14 day",157.2 mg/dL
same,RALB,"[…], time 14 day",2.7 g/dL
same,TBIL,"[…], time 14 day",0.056 mg/dL
same,TC,"[…], time 14 day",72 mg/dL
same,TG,"[…], time 14 day",136.8 mg/dL
same,TP,"[…], time 14 day",5.9 g/dL
same,gamma-GTP,"[…], time 14 day",1 IU/L
same,A/G,"[…], time 28 day",0.8
same,ALP,"[…], time 28 day",1194 IU/L
same,ALT,"[…], time 28 day",36.5 IU/L
same,AST,"[…], time 28 day",59 IU/L
same,BUN,"[…], time 28 day",17.2 mg/dL
same,CRE,"[…], time 28 day",0.3 mg/dL
same,Ca,"[…], time 28 day",10.8 mg/dL
same,Cl,"[…], time 28 day",105.2 meq/L
same,DBIL,"[…], time 28 day",0.01 mg/dL
same,GLC,"[…], time 28 day",203.2 mg/dL
same,IP,"[…], time 28 day",6.5 mg/dL
same,K,"[…], time 28 day",3.7 meq/L
same,LDH,"[…], time 28 day",53.5 IU/L
same,Na,"[…], time 28 day",143.2 meq/L
same,PL,"[…], time 28 day",132 mg/dL
same,RALB,"[…], time 28 day",2.7 g/dL
same,TBIL,"[…], time 28 day",0.05 mg/dL
same,TC,"[…], time 28 day",58.2 mg/dL
same,TG,"[…], time 28 day",111.5 mg/dL
same,TP,"[…], time 28 day",6 g/dL
same,gamma-GTP,"[…], time 28 day",1 IU/L
